Data set [1] has as its system E. coli CR-3. The settings on record: CR-3, 18 h.
The test system of data set [2] is E. coli JCM1649. The settings on record: JCM1649, 18 h.
Data set [3] can be described thus: Anti-cancer activity, D98-AH2. The settings on record: D98-AH2, uterine cancer; read-out: LC50 (the source's name). In kind it is cell-based, human. How it is done:
(§1) Anti-cancer activity was evaluated using a method complying with an anti-cancer agent screening method (1990) using a human cancer cell panel which has been carried out by U.S. National Cancer Institute (NCI). Cells employed in experiments were from the following three cell lines: HL60 cell (cell line derived from human leukemia); HeLa cell (cell line derived from human uterine cancer); and HCT116 cell (cell line derived from human large intestine cancer). Media suitable for use of these cells are RPMI-1640 medium containing 10% FCS; a MEM medium containing 10% CS; and McCoy5A medium containing 10% FCS, respectively.
(§2) Cells suspended in themedium wereplated into 96-well plates at a concentration of 1×10^5 cells/cm^2, followed by incubation overnight. Peptide solutions containing various concentrations of the peptide of the present invention were added to the plates, followed by incubation at 37° C. for 2 days in a CO2 incubator. During culturing, the growth of the cells was measured by colorimetry using sulforhodamine B and the peptide concentration was categorized into any of GI50 which is the concentration at which the growth is inhibited by 50% as compared to the control; TGI which is the concentration at which the number of cells is seemingly not increased or decreased from the time of addition of the peptide of the present invention, i.e., the growth is suppressed to the same number of cells as when the peptide was added: and LC50 which is the concentration at which the number of cells is decreased to 50% of that at the time of addition of the peptide.
(§3) Thereafter, various cancer cells were employed to confirm the anti-cancer activity of mast21R. Each cancer cell was cultured in RPMI-1640 medium containing 10% FCS.

Data set [4] deals with S. enteritidis ATCC1891. The settings on record: ATCC1891, 18 h.
The nature of data set [5]: Anti-cancer activity, KATO III cell. The settings on record: stomach cancer, read-out: LC50 (the source's name). It counts as cell-based, human. How it is done:
as §1, §2, §3

Data set [6] can be described thus: Anti-cancer activity, A172. In kind it is cell-based, human. As to conditions: A172, glioblastoma; read-out: LC50 (the source's name). How it is done: as §1, §2, §3
Data set [7] in a line: Anti-cancer activity, LK-2. As to conditions: LK-2, lung cancer; read-out: LC50 (the source's name). It counts as cell-based, human. How it is done: as §1, §2, §3
Data set [8] in a line: Anti-cancer activity, colo205. It counts as cell-based, human. The settings on record: colo205, large intestine cancer; read-out: LC50 (the source's name). How it is done: as §1, §2, §3
Data set [9] has as its system erythrocytes. The settings on record: red cells of human, 100 μM.
The test system of data set [10] is B. sereus IFO3457. As to conditions: 18 h.
Data set [11] can be described thus: Anti-cancer activity, SR-BR-3. In kind it is cell-based, human. The settings on record: SR-BR-3, breast cancer; read-out: LC50 (the source's name). As to the method:
as §1, §2, §3

A short description of data set [12]: Anti-cancer activity, HCT-15. As to conditions: HCT-15, large intestine cancer; read-out: LC50 (the source's name). In kind it is cell-based, human. How it is done:
as §1, §2, §3

For data set [13], the system named is Erwinia carotovora (NBRC3380). The data set is described as follows: Antibacterial activity against plant pathogenic bacteria. It counts as cell-based. The settings on record: 30° C., 16 to 24 h. How it is done:
Mast21, mast21R, ALR6, and KVL6 were evaluated with respect to antibacterial activity against Erwinia carotovora (NBRC3380) which is a plant pathogenic bacterium causing soft rot. Specifically, a minimum concentration of a peptide capable of inhibiting the growth of bacteria was determined using microtiter plates. Bacteria were cultured for 16 h in culture medium (Difco Nutrient Broth 8 g, NaCl 5 g/L, pH 7.0), followed by measurement of absorbance at A600. Each bacterial strain was diluted into a final concentration of 1×10^6 CFU/ml. For each peptide, 5 mM aqueous solution was prepared, and thereafter, was subjected to serial dilution. The peptide serial dilutions (50 μl for each) were added to respective wells of the microplate to which 50 μl of the bacterial solution had been added (final cell concentration: 5×10^5 CFU/ml, final peptide concentration: 0 to 50 μM). […] The unit of concentration described in Table 9 is μM.

Data set [14] has as its system B. subtilis IFO13722. The settings on record: IFO13722, 18 h.
A short description of data set [15]: Anti-cancer activity, A549. It counts as cell-based, human. The settings on record: A549, lung cancer; read-out: LC50 (the source's name). How it is done: as §1, §2, §3
Data set [16] in a line: Anti-cancer activity, EJ-1 cell. In kind it is cell-based, human. As to conditions: bladder cancer, read-out: LC50 (the source's name). As to the method:
as §1, §2, §3

Data set [17] is described as follows: Anti-cancer activity, 5637 cell. It counts as cell-based, human. The settings on record: bladder cancer, read-out: LC50 (the source's name). How it is done: as §1, §2, §3
Data set [18] concerns S. aureus IFO13276. The settings on record: IFO13276, 18 h.
Data set [19] can be described thus: Anti-cancer activity, NIH OVCAR-3. In kind it is cell-based, human. As to conditions: NIH OVCAR-3, ovarian cancer; read-out: LC50 (the source's name). How it is done:
as §1, §2, §3

Data set [20] is described as follows: Anti-cancer activity, SH-10-TC. In kind it is cell-based, human. The settings on record: stomach cancer. As to the method: as §1, §2, §3
Data set [21] can be described thus: Anti-cancer activity, EBC-1. It counts as cell-based, human. As to conditions: EBC-1, lung cancer; read-out: LC50 (the source's name). How it is done: as §1, §2, §3
Data set [22] can be described thus: Anti-cancer activity, MCF7. As to conditions: MCF7, breast cancer. In kind it is cell-based, human. How it is done:
as §1, §2, §3

A short description of data set [23]: Anti-cancer activity, PC-3. In kind it is cell-based, human. The settings on record: PC-3, prostate cancer; read-out: LC50 (the source's name). As to the method:
as §1, §2, §3

In data set [24] the test system is E. coli CE-273. As to conditions: CE-273, 18 h.
For data set [25], the system named is S. aureus JCM2413. As to conditions: JCM2413, 18 h.
The nature of data set [26]: Anti-cancer activity, ACHN. It counts as cell-based, human. As to conditions: kidney cancer, read-out: LC50 (the source's name). How it is done: as §1, §2, §3
In data set [27] the test system is S. enteritidis ATC14028. The settings on record: ATC14028, 18 h.
A short description of data set [28]: Anti-cancer activity, DU-145. The settings on record: DU-145, prostate cancer; read-out: LC50 (the source's name). In kind it is cell-based, human. As to the method:
as §1, §2, §3

The nature of data set [29]: Anti-cancer activity, HL60 cell. In kind it is cell-based, human. As to conditions: sulforhodamine B. As to the method:
as §1
(§4) Cells suspended in themedium wereplated into 96-well plates at a concentration of 1×10^5 cells/cm^2, followed by incubation overnight. Peptide solutions containing various concentrations of the peptide of the present invention were added to the plates, followed by incubation at 37° C. for 2 days in a CO2 incubator. […]

Data set [30] in a line: Anti-cancer activity, HCT116 cell. In kind it is cell-based, human. The settings on record: sulforhodamine B. How it is done: as §1, §4
The nature of data set [31]: Anti-cancer activity, HeLa cell. In kind it is cell-based, human. As to conditions: sulforhodamine B. How it is done:
as §1, §4

[32] abbreviates: 2 days, read-out: LC50 (the source's name).

We go through three sequences from US20040072992A1, “Novel peptide capable of specifically acting on biological membrane” (priority 2002, published 2004).

Where “and” joins values, the source holds several entries; their conditions need not be identical. Equal values may be shown once. Where no end group is shown, it is not given here.

With “KNWKGIAGMAKKLLGKNWKLM [mast21, reference compound]”, the MIC (as a rule, the smallest concentration in the dilution series that meets the test's criterion for growth inhibition) in data set [1] is 6.3 µM; in data set [2], 6.3 µM; in data set [4], 6.3 µM; in [10], 3.1 µM; in data set [13], 3.1 μM and 3.7 μg/ml; in data set [14], 6.3 µM. The minimum inhibitory concentration (MIC) in [18] is 25 µM; in [24], 3.1 µM; in data set [25], 12.5 µM; in [27], 6.3 µM. The CC50 in data set [3] was > 100 µM; in data set [5], > 100 µM; in [6], > 100 µM; in data set [7], > 100 µM; in data set [8], > 100 µM; in [11], 90 µM. Besides, the CC50 in [12] was 80 µM; in data set [15], 70 µM; in [16] it was 70 µM; in data set [17], > 100 µM; in [19] it was 100 µM; in data set [21], 100 µM. The values for the CC50 in data set [23], in [26] and in [28] were 100 µM, 80 µM and > 100 µM, respectively. The “Hemolytic property (relative value)” value in data set [9] stood at 5.4%. The LC50 – broadly, the concentration lethal to half of the exposed cells or organisms – in data set [20] was 90 µM; in [22], 100 µM.
KVLKVLKVLKVLKVL [KVL5, KVLKVLKVLKVLKVL]: the LC50 at 2 days in data set [29] (human, HL60 cells (leukemia cell line)) is > 100 µM. Besides, the MIC was 25 µM in data set [1]; 12.5 µM in data set [2]; 25 µM in data set [4]; 200 µM in data set [10]; 25 µM in data set [14]; 100 µM in data set [18]. Also, the MIC in data set [24] turned out to be 6.3 µM; in [25], 200 µM; in [27], 100 µM. Moreover, the CC50 at 2 days was > 100 µM in data set [30] (human, read-out: LC50) and > 100 µM in [31] (human, HeLa cells (uterine cancer cell line), read-out: LC50).
With RNWRGIAGMARRLLGRNWRLM [mast21R], the LC50 in [29] (2 days) was 20 µM; in [20], 60 µM; in [22], 90 µM. For the same sequence, the MIC in data set [1] is 1.6 µM; in data set [2], 3.1 µM; in data set [4] it was 3.1 µM; in [10], 3.1 µM; in [13], 1.6 μM and 2 μg/ml; in [14], 1.56 µM. In addition, the MIC in data set [18] is 6.25 µM; in [24], 3.1 µM; in data set [25] it was 6.25 µM; in [27], 3.1 µM. Besides, the CC50 in [3] is 50 µM; in [5], 50 µM; in [6] it was 50 µM; in data set [7], > 100 µM; in data set [8] it was 50 µM; in data set [11], 90 µM. The CC50 was 30 µM in data set [12]; 50 µM in data set [15]; 20 µM in data set [16]; 50 µM in data set [17]; 80 µM in data set [19]; 70 µM in [21]. The CC50 in data set [30] (setting [32]) was determined as 2 µM; in [31] (setting [32]), 20 µM; in data set [23], 60 µM; in data set [26], 30 µM; in data set [28], 90 µM. Also, the “Hemolytic property (relative value)” value in data set [9] was found to be 13%.
